The NIST ThermoML archive (doi:10.1016/j.jct.2004.07.014)
± gives the expanded uncertainty stated by the source.

Conditions: Liquid, Closed cell (Static) method

SMILES: CC#N [acetonitrile]
- vapor or sublimation pressure (305.51 K): 16.47 ± 0.22 kPa
- vapor or sublimation pressure (323.12 K): 33.71 ± 0.25 kPa
- vapor or sublimation pressure (353.13 K): 96.17 ± 0.37 kPa
